Experimental data from ChEMBL document CHEMBL2401657, “Discovery of new PPARγ agonists based on arylopeptoids” (Bioorg Med Chem Lett, 2013).
Calls of active or inactive are those of the source. The rule behind the calls is not given here.

Legend:
[1] = target: Free fatty acid receptor 1 (Homo sapiens) (UniProt O14842); assay: Agonist activity at FFAR1 (unknown origin) assessed as induction of calcium mobilization at 10 uM by fluorescence assay; format: functional
[2] = target: Free fatty acid receptor 1 (Homo sapiens) (UniProt O14842); assay: Antagonist activity at FFAR1 (unknown origin) assessed as inhibition of GW9508-induced calcium mobilization at 10 uM preincubated for 20 mins followed by GW9508 induction by fluorescence assay; format: functional
[3] = Cytotoxicity against mouse embryo fibroblasts; format: cell-based; details: fibroblast
[4] = target: T1, Peroxisome proliferator-activated receptor gamma (Homo sapiens) (UniProt P37231); assay: Transactivation of human PPARgamma LBD transfected in mouse embryo fibroblasts at 100 uM after 18 hrs by Gal4-responsive luciferase reporter gene assay relative to rosiglitazone
T1 sequence (whole entry): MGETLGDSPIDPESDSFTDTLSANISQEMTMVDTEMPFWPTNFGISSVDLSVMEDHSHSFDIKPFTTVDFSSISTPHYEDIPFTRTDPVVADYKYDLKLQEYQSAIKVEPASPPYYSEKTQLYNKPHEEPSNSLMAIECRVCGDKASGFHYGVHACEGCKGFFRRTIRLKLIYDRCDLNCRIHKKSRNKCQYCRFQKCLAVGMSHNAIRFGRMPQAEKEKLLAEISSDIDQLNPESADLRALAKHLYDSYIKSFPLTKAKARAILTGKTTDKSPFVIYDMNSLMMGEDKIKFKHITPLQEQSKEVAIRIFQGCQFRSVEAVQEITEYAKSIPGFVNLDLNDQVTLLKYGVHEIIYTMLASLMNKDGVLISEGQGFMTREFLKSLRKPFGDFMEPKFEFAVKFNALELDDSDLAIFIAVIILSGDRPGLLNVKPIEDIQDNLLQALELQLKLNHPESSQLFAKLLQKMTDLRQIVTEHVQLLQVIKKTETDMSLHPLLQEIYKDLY

[5] = target: T1, Peroxisome proliferator-activated receptor gamma (Homo sapiens); assay: Transactivation of human PPARgamma LBD transfected in mouse embryo fibroblasts at 100 uM after 18 hrs by Gal4-responsive luciferase reporter gene assay relative to vehicle-treated control
[6] = target: T2, Peroxisome proliferator-activated receptor delta (Homo sapiens) (UniProt Q03181); assay: Transactivation of PPARdelta (unknown origin) relative to control
T2 sequence (whole entry): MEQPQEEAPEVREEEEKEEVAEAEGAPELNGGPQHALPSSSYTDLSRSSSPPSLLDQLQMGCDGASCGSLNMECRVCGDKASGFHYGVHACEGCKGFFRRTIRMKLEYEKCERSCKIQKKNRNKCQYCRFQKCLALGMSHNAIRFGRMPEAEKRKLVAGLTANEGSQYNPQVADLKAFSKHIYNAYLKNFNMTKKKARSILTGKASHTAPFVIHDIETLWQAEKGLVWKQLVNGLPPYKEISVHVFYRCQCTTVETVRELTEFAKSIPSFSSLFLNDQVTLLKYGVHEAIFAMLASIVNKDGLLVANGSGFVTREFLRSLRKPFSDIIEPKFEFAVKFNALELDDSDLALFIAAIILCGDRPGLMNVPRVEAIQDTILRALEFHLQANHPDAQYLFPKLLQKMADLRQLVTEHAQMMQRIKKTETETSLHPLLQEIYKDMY

[7] = target: T3, Retinoic acid receptor RXR-alpha (Homo sapiens) (UniProt P19793); assay: Transactivation of RXRalpha (unknown origin) relative to control
T3 sequence (whole entry): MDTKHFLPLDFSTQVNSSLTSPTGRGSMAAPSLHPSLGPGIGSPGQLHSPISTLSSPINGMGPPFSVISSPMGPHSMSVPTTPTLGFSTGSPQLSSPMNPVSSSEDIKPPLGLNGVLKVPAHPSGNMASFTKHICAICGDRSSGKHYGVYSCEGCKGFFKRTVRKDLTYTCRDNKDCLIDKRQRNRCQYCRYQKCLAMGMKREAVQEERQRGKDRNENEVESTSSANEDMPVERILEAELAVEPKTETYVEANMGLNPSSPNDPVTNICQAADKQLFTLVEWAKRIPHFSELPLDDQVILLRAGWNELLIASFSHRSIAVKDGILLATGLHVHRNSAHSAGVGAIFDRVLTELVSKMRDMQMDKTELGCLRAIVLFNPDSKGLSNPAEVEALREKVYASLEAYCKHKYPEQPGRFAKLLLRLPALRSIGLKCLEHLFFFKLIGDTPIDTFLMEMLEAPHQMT

[8] = target: T4, Peroxisome proliferator-activated receptor alpha (Homo sapiens) (UniProt Q07869); assay: Transactivation of PPARalpha (unknown origin) relative to control
T4 sequence (whole entry): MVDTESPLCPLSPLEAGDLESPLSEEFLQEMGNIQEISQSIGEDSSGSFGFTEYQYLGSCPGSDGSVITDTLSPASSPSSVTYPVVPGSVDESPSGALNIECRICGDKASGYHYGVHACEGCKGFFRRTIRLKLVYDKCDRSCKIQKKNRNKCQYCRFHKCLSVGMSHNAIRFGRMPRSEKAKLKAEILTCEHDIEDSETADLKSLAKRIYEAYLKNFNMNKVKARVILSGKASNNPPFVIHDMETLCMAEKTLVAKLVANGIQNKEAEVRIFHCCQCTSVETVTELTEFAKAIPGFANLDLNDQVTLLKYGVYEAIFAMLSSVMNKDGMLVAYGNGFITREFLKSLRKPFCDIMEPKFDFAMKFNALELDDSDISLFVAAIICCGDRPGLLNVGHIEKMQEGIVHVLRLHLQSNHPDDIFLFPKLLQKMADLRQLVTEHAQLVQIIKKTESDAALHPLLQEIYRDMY

[9] = target: T5, Peroxisome proliferator-activated receptor gamma (Homo sapiens, UniProt P37231); assay: Binding affinity to GST-tagged human PPARgamma LBD by ligand displacement assay
T5 sequence (P37231 whole entry): T1 sequence (whole entry)

Chain of Free fatty acid receptor 1 (Homo sapiens) (O14842 whole entry): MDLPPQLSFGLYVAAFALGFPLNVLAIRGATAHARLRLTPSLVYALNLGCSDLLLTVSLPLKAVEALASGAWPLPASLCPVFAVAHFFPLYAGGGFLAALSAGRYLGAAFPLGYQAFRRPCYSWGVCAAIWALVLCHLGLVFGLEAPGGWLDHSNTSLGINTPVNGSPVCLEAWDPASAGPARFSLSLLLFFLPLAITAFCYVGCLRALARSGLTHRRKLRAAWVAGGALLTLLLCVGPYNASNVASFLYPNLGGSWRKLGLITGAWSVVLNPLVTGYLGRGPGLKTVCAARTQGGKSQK

Compound | Activity [1] | inhibition [2] | Activity [4] [%] | fold change (FC) [5] | fold change (FC) [6] | fold change (FC) [7] | fold change (FC) [8] | IC50 [9] [µM] | Activity [3]
CCN(Cc1ccc(CCC(=O)O)cc1)C(=O)c1ccc(CN(C(=O)c2ccccc2)C(C)C)cc1 | inactive | inactive | 6.9 | 3.6 | – | – | – | – | Non-toxic
CCN(Cc1ccc(CCC(=O)O)cc1)C(=O)c1ccc(CNC(=O)c2ccccc2)cc1 | inactive | inactive | 11.8 | 6.2 | – | – | – | – | Non-toxic
CCN(Cc1ccc(C(=O)N(CC)Cc2ccc(CCC(=O)O)cc2)cc1)C(=O)c1ccccc1 | inactive | inactive | 13.8 | 7.3 | – | – | – | – | Non-toxic
CC(C)N(Cc1ccc(CCC(=O)O)cc1)C(=O)c1ccc(CNC(=O)c2ccccc2)cc1 | inactive | inactive | 21.2 | 12.6 | – | – | – | – | Non-toxic
CC(C)N(Cc1ccc(C(=O)NCc2ccc(CCC(=O)O)cc2)cc1)C(=O)c1ccccc1 | inactive | inactive | 12.5 | 5.7 | – | – | – | – | Non-toxic
CC(C)N(Cc1cccc(C(=O)NCc2ccc(CCC(=O)O)cc2)c1)C(=O)c1ccccc1 | inactive | inactive | 18.4 | 7.3 | – | – | – | – | Non-toxic
CCN(Cc1ccc(C(=O)N(Cc2ccc(CCC(=O)O)cc2)C(C)C)cc1)C(=O)c1ccccc1 | inactive | inactive | 11.6 | 6.9 | – | – | – | – | Non-toxic
CCN(Cc1cccc(C(=O)NCc2ccc(CCC(=O)O)cc2)c1)C(=O)c1ccccc1 | inactive | inactive | 23.5 | 9.3 | – | – | – | – | Non-toxic
O=C(O)CCc1ccc(CNC(=O)c2cccc(CNC(=O)c3ccccc3)c2)cc1 | inactive | inactive | 14.1 | 5.6 | < 2 | < 2 | < 2 | 62.7 | Non-toxic

Further lines, with some results ahead:

Activity [1] | inhibition [2] | Activity [4] [%] | fold change (FC) [5] | fold change (FC) [6] | fold change (FC) [7] | fold change (FC) [8] | IC50 [9] [µM] | Compound | Activity [3]
inactive | inactive | 24.7 | 14.7 | – | – | – | – | CC(C)N(Cc1ccc(C(=O)N(Cc2ccc(CCC(=O)O)cc2)C(C)C)cc1)C(=O)c1ccccc1 | Non-toxic
inactive | inactive | 11.8 | 5.8 | – | – | – | – | CCN(Cc1cccc(C(=O)N(Cc2ccc(CCC(=O)O)cc2)C(C)C)c1)C(=O)c1ccccc1 | Non-toxic
inactive | inactive | 10.7 | 5.3 | – | – | – | – | CC(C)N(Cc1cccc(C(=O)N(Cc2ccc(CCC(=O)O)cc2)C(C)C)c1)C(=O)c1ccccc1 | Non-toxic
inactive | inactive | 20.9 | 11.2 | < 2 | < 2 | > 2 | 56.2 | CCN(Cc1cccc(C(=O)N(CC)Cc2ccc(CCC(=O)O)cc2)c1)C(=O)c1ccccc1 | Non-toxic
inactive | inactive | 5.4 | 2.5 | – | – | – | – | O=C(O)CCc1ccc(CNC(=O)c2ccc(CNC(=O)c3ccccc3)cc2)cc1 | Non-toxic
inactive | inactive | 15.1 | 8.1 | – | – | – | – | CCN(Cc1ccc(CCC(=O)O)cc1)C(=O)c1cccc(CNC(=O)c2ccccc2)c1 | Non-toxic
inactive | inactive | 27.2 | 13.4 | < 2 | 5 | < 2 | 38.7 | CC(C)N(Cc1ccc(CCC(=O)O)cc1)C(=O)c1cccc(CNC(=O)c2ccccc2)c1 | Non-toxic
inactive | inactive | 11.6 | 6.2 | – | – | – | – | CCN(Cc1ccc(CCC(=O)O)cc1)C(=O)c1cccc(CN(C(=O)c2ccccc2)C(C)C)c1 | Non-toxic
inactive | inactive | 13.1 | 6 | – | – | – | – | CCN(Cc1ccc(C(=O)NCc2ccc(CCC(=O)O)cc2)cc1)C(=O)c1ccccc1 | Non-toxic
